Source: US20230053649A1 (Cedilla Therapeutics, Inc., priority 2021, published 2023)

Experiments:
[1] = test system: mesothelioma cell line NCI-H226; assay: 72H TEAD Proliferation Assay (Cell Titer-Glo 2.0); format: cell-based; conditions: Homo sapiens, CTG 2.0, cell line not given in Table 1 (NCI-H226 TEAD-responsive, NCI-H28 non-responsive counter-screen)
Description: 72H TEAD Proliferation Assay.
The effect of TEAD inhibition on cell proliferation was assayed using Cell Titer Glo (CTG) 2.0 to measure response in mesothelioma cell lines NCI-H226 (ATCC, #CRL-5826) and NCI-H28 (ATCC, #CRL-5820).
The 72H TEAD Proliferation assay utilizes Cell Titer-Glo 2.0 (Promega, #G9243) to measure the proliferation of cells in the presence or absence of compound. Cell Titer-Glo 2.0 determines the amount of viable cells by quantifying ATP (an indication of metabolically active cells). It utilizes the conversion of Luciferin to Oxyluciferin and a luminescent signal with the use of ATP to report the quantity of viable cells in culture. Within cells that are continually growing, ATP is being synthesized to meet their metabolic demands, meanwhile the opposite is true for cells that are dying or slowing down their proliferation and either no longer using ATP or are using less, respectively. The NF2-deficient NCI-H226 has been genetically validated as a cell line that is sensitive to TEAD inhibition. The NF2-wild type NCI-H28 has been genetically validated as a cell line that is not sensitive to TEAD inhibition and grows independently of TEAD activity.
Compounds were screened against the responsive NCI-H226 cell line to assess the compounds' ability to inhibit TEAD and cell growth. Compounds were also screened against the non-responsive NCI-H28 cell line to ascertain whether the inhibition of cell growth was due to inhibition of the target TEAD or whether the inhibition was due to off-target cytotoxicity.
Both NCI-H226 and NCI-H28 cells were grown at 37° C. with 5% CO2 using Growth Medium 1.
Anti-proliferative effect of compounds that inhibits TEAD activity measured by CTG
1) Assay ready plates (ARPs) were prepared by Echo acoustic liquid handler. For each compound, duplicate of 10-point half-log dilution series were dispensed in a 384-well microplate (Corning 3571).
3) Before use, ARPs were allowed to warm up to room temperature for 30 min.
4) ARPs were spun for 5 minutes at 1500RPM before removing the plate seals.
5) NCI-H226 or NCI-H28 cells were harvested from culture in Assay Medium 1 and the multidrop Combi reagent dispenser was used to seed cells at 500 cells per 50ul in each well of the ARPs and one Corning 3571 plate without compounds for Time 0 (TO) readout.
6) The TO plate was incubated for 2 hours at 37° C. with 5% CO2 to allow cells to settle, then the CTG Assay was performed.
7) All ARPs were incubated for 72 hours at 37° C. with 5% CO2, then the CTG Assay was performed for Time 72H (T72) readout.
8) CTG Assay: Bravo liquid handler (Agilent) was used to add 25ul of CTG 2.0 to all columns of the plate except for Column 24, which was used to subtract out the background. After CTG addition, plates were placed on shaker at 800RPM for 15 minutes at room temperature and kept in the dark. Luminescence was measured using EnVision multilabel plate reader with ultra-sensitive detection module.
9) Data Analysis: First background luminescence (no CTG wells) was subtracted from luminescence reading of all wells, then TO luminescence was subtracted from T72 luminescence. To compare anti-proliferative effect of compounds, GI50 was obtained by fitting dose response curves with nonlinear regression curve fit.

[2] = target: TEAD1 protein (YAP Binding Domain) (Homo sapiens, UniProt P28347); assay: biochemical
Sequence of TEAD1 protein (YAP Binding Domain) (P28347 167-426 limits assumed): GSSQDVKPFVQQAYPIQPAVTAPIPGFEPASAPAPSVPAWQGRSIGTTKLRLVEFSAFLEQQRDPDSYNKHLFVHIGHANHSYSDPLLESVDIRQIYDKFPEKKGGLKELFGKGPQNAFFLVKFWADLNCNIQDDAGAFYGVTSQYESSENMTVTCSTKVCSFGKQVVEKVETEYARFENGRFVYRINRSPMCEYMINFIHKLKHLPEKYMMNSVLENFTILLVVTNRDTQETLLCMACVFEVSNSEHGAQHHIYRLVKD
Description: Compound Displacement Assay.
A TEAD1 lipid pocket displacement assay was carried out according to the following protocol. Purified His-tagged TEAD1 protein (YAP Binding Domain) was pre-mixed with a Cy5-probe (Cy5-conjugated to a small molecule that binds in the TEAD1 lipid pocket) and Terbium-labeled anti-His antibody (Cisbio Cat 61HI2TLB). The binding of the Cy5-probe to anti-His-Tb/His-tag TEAD1 complex yielded a TR-FRET signal. […] After 60 minutes incubation at room temperature of compounds with the His-TEAD1/anti-His-Tb/Cy5-probe complex, the plate was read on a plate reader (BMG ClarioStar Cat 430-1300) using TR-FRET mode with wavelengths of 665 nm/620 nm. The potency of compounds as TEAD1 lipid pocket binders was determined by IC50 value generated using a non-linear 4 parameter curve fit.

Row | SMILES | GI50 [1] [µM] | IC50 [2] [µM]
1 | COc1cc(N2CCC(C(F)(F)F)CC2)c2ncc(C(=O)N[C@@H](C)COC(F)(F)F)cc2c1 [Compound I-12, (S)-6-methoxy-N-(1-(trifluoromethoxy)propan-2-yl)-8-(4-(trifluoromethyl)piperidin-1-yl)quinoline-3-carboxamide] | ≤ 0.5 | > 0.5
2 | COC[C@H](C)NC(=O)c1cnc2c(N3CCC(C(F)(F)F)CC3)cc(OC(F)F)cc2c1 [Compound I-28, (S)-6-(difluoromethoxy)-N-(1-methoxypropan-2-yl)-8-(4-(trifluoromethyl)piperidin-1-yl)quinoline-3-carboxamide] | 0.5 to 1 | 0.15 to 0.3
3 | C[C@H](CO)NC(=O)c1ccc2c(N3CCC(C(F)(F)F)CC3)nc(C(F)(F)F)cc2c1 [Compound I-52, (R)-N-(1-hydroxypropan-2-yl)-3-(trifluoromethyl)-1-(4-(trifluoromethyl)piperidin-1-yl)isoquinoline-6-carboxamide] | ≤ 0.5 | < 0.15
4 | COc1cc(N2CCC(C(F)(F)F)CC2)c2ncc(C(=O)N[C@@H](CO)C3CC3)cc2c1 [Compound I-36] | 0.5 to 1 | 0.15 to 0.3
5 | C[C@H](CO)NC(=O)c1ccc2c(N3CCC(C(F)(F)F)CC3)nccc2c1 [Compound I-63, (R)-N-(1-hydroxypropan-2-yl)-1-(4-(trifluoromethyl)piperidin-1-yl)isoquinoline-6-carboxamide] | 1 to 5 | 0.3 to 0.5
6 | COc1cc(N2CCC(C(C)(C)C)CC2)c2ncc(C(=O)N[C@H](C)CO)cc2c1 [Compound I-2, (R)-8-(4-(tert-butyl)piperidin-1-yl)-N-(1-hydroxypropan-2-yl)-6-methoxyquinoline-3-carboxamide] | ≤ 0.5 | 0.3 to 0.5
7 | O=C(O)c1ccc2c(N3CCC(C(F)(F)F)CC3)cccc2c1 [Compound I-57, 5-(4-(Trifluoromethyl)piperidin-1-yl)-2-naphthoic acid] | > 5 | 0.15 to 0.3
8 | COc1cc(-c2ccc(OC(F)F)cc2)c2ncc(C(=O)N[C@H](C)CO)cc2c1 [Compound I-17, (R)-8-(4-(difluoromethoxy)phenyl)-N-(1-hydroxypropan-2-yl)-6-methoxyquinoline-3-carboxamide] | ≤ 0.5 | < 0.15
9 | COC[C@H](C)NC(=O)c1cnc2c(N3CCC(C(F)(F)F)CC3)cc(OC(F)(F)F)cc2c1 [Compound I-23, (S)-N-(1-methoxypropan-2-yl)-6-(trifluoromethoxy)-8-(4-(trifluoromethyl)piperidin-1-yl)quinoline-3-carboxamide] | 1 to 5 | 0.3 to 0.5
10 | COC[C@H](C)NC(=O)c1cnc2c(N3CCC(CC(F)(F)F)CC3)cc(OC)cc2c1 [Compound I-5, (S)-6-methoxy-N-(1-methoxypropan-2-yl)-8-(4-(2,2,2-trifluoroethyl)piperidin-1-yl)quinoline-3-carboxamide] | 1 to 5 | < 0.15
11 | C[C@H](NC(=O)c1cnc2c(-c3ccc(C#N)cc3)cccc2c1)c1ccccn1 [I′-32, (S)-8-(4-cyanophenyl)-N-(1-(pyridin-2-yl)ethyl)quinoline-3-carboxamide] | 1 to 5 | 0.3 to 0.5
12 | COc1cc(N2CCC(C(F)F)CC2)c2ncc(C(=O)N[C@H](C)CO)cc2c1 [Compound I-7, (R)-8-(4-(difluoromethyl)piperidin-1-yl)-N-(1-hydroxypropan-2-yl)-6-methoxyquinoline-3-carboxamide] | 1 to 5 | 0.15 to 0.3
13 | COc1cc(N2CCC(C(F)(F)F)CC2)c2ncc(C(=O)N3CC(O)C3)cc2c1 [Compound I-11, (3-hydroxyazetidin-1-yl)(6-methoxy-8-(4-(trifluoromethyl)piperidin-1-yl)quinolin-3-yl)methanone] | 1 to 5 | > 0.5
14 | CC(NC(=O)c1ccc2c(OCC3CCC(F)(F)CC3)cccc2c1)c1ccccn1 (stereo not drawn) [Compound I-45, 5-((4,4-difluorocyclohexyl)methoxy)-N-(1-(pyridin-2-yl)ethyl)-2-naphthamide] | 1 to 5 | < 0.15
15 | COc1cc(-c2ccc(C(C)(C)O)cc2)c2ncc(C(=O)N[C@H](C)CO)cc2c1 [I′-34, (R)-N-(1-hydroxypropan-2-yl)-8-(4-(2-hydroxypropan-2-yl)phenyl)-6-methoxyquinoline-3-carboxamide] | > 5 | 0.3 to 0.5
16 | COc1cc(-c2ccc(OC(F)(F)F)cc2)c2ncc(C(=O)N[C@H](C)CO)cc2c1 [Compound I-15, (R)-N-(1-hydroxypropan-2-yl)-6-methoxy-8-(4-(trifluoromethoxy)phenyl)quinoline-3-carboxamide] | ≤ 0.5 | < 0.15
17 | COc1cc(N2CCC3(CC2)CC3)c2ncc(C(=O)N[C@H](C)CO)cc2c1 [Compound I-3, (R)-N-(1-hydroxypropan-2-yl)-6-methoxy-8-(6-azaspiro[2.5]octan-6-yl)quinoline-3-carboxamide] | 0.5 to 1 | 0.15 to 0.3
18 | COc1cc(N2CCN(CC(F)(F)F)CC2)c2ncc(C(=O)N[C@H](C)CO)cc2c1 [Compound I-8, (R)-N-(1-hydroxypropan-2-yl)-6-methoxy-8-(4-(2,2,2-trifluoroethyl)piperazin-1-yl)quinoline-3-carboxamide] | > 5 | > 0.5
19 | COC[C@H](C)NC(=O)c1cnc2c(N3CCC(C(F)(F)F)CC3)cccc2c1 [Compound I-61, (S)-N-(1-methoxypropan-2-yl)-8-(4-(trifluoromethyl)piperidin-1-yl)quinoline-3-carboxamide] | 0.5 to 1 | 0.15 to 0.3
20 | COC[C@H](C)NC(=O)c1cnc2c(N3CCC(C(F)(F)F)CC3)cc(OC)cc2c1 [Compound I-9, (S)-6-methoxy-N-(1-methoxypropan-2-yl)-8-(4-(trifluoromethyl)piperidin-1-yl)quinoline-3-carboxamide] | ≤ 0.5 | 0.15 to 0.3
21 | CC(NC(=O)c1cnc2c(OCC3CCC(F)(F)CC3)cccc2c1)c1ccccn1 (stereo not drawn) [Compound I-46, 8-((4,4-Difluorocyclohexyl)methoxy)-N-(1-(pyridin-2-yl)ethyl)quinoline-3-carboxamide] | 1 to 5 | 0.3 to 0.5
22 | COc1cc2cc(C(=O)N[C@H](C)CO)ccc2c(N2CCC(C(F)(F)F)CC2)n1 [Compound I-49, (R)-N-(1-hydroxypropan-2-yl)-3-methoxy-1-(4-(trifluoromethyl)piperidin-1-yl)isoquinoline-6-carboxamide] | ≤ 0.5 | < 0.15
23 | CC[C@@H](CO)NC(=O)c1cnc2c(N3CCC(C(F)(F)F)CC3)cc(OC)cc2c1 [Compound I-14, (S)-N-(1-hydroxybutan-2-yl)-6-methoxy-8-(4-(trifluoromethyl)piperidin-1-yl)quinoline-3-carboxamide] | 1 to 5 | 0.15 to 0.3
24 | CC[C@H](CO)NC(=O)c1ccc2c(-c3ccc(C(F)(F)F)cc3)nc(OC)cc2c1 [I″-53, (R)-N-(1-hydroxybutan-2-yl)-3-methoxy-1-(4-(trifluoromethyl)phenyl)isoquinoline-6-carboxamide] | ≤ 0.5 | < 0.15
25 | COc1cc(N2CCC3(CCCC3)CC2)c2ncc(C(=O)N[C@H](C)CO)cc2c1 [Compound I-4, (R)-N-(1-hydroxypropan-2-yl)-6-methoxy-8-(8-azaspiro[4.5]decan-8-yl)quinoline-3-carboxamide] | 0.5 to 1 | 0.15 to 0.3
26 | COc1cc(-c2ccc(OCC(F)(F)F)cc2)c2ncc(C(=O)N[C@H](C)CO)cc2c1 [Compound I-18, (R)-N-(1-hydroxypropan-2-yl)-6-methoxy-8-(4-(2,2,2-trifluoroethoxy)phenyl)quinoline-3-carboxamide] | 1 to 5 | 0.15 to 0.3
27 | C[C@H](CO)NC(=O)c1cnc2c(N3CCC(C(F)(F)F)CC3)cccc2c1 [Compound I-60, (R)-N-(1-hydroxypropan-2-yl)-8-(4-(trifluoromethyl)piperidin-1-yl)quinoline-3-carboxamide] | 0.5 to 1 | 0.15 to 0.3
